Target: T1, HCV NS3/4A protease complex, J4L6S strain (Hepatitis C virus genotype 1b, UniProt O92972, C1454S/C1711G)
T1 construct: DNA encoding the recombinant HCV NS3/4A protease complex (amino acids 1027 to 1711) for these strains; made in house; host or cells: Escherichia coli BL21 (DE3), pET21b
Assay: FRET peptide assay to monitor HCV NS3/4A proteolytic activity (J4L6S strain)
Assay type: biochemical
Conditions: read-out: IC50 against the NS3/4A J4L6S strain
Text: HCV NS3 protease complexes, derived from the BMS strain, H77 strain or J4L6S strain, were generated, as described below. These purified recombinant proteins were generated for use in a homogeneous assay (see below) to provide an indication of how effective compounds of the present disclosure would be in inhibiting HCV NS3 proteolytic activity.
Serum from an HCV-infected patient was obtained from Dr. T. Wright, San Francisco Hospital. An engineered full-length cDNA (compliment deoxyribonucleic acid) template of the HCV genome (BMS strain) was constructed from DNA fragments obtained by reverse transcription-PCR (RT-PCR) of serum RNA (ribonucleic acid) and using primers selected on the basis of homology between other genotype 1a strains. From the determination of the entire genome sequence, a genotype 1a was assigned to the HCV isolate according to the classification of Simmonds et al. (See P Simmonds, K A Rose, S Graham, S W Chan, F McOmish, B C Dow, E A Follett, P L Yap and H Marsden, J. Clin. Microbiol., 31(6), 1493-1503 (1993)). […]

T1 sequence (O92972 1027-1711 C1454S/C1711G, one chain of several): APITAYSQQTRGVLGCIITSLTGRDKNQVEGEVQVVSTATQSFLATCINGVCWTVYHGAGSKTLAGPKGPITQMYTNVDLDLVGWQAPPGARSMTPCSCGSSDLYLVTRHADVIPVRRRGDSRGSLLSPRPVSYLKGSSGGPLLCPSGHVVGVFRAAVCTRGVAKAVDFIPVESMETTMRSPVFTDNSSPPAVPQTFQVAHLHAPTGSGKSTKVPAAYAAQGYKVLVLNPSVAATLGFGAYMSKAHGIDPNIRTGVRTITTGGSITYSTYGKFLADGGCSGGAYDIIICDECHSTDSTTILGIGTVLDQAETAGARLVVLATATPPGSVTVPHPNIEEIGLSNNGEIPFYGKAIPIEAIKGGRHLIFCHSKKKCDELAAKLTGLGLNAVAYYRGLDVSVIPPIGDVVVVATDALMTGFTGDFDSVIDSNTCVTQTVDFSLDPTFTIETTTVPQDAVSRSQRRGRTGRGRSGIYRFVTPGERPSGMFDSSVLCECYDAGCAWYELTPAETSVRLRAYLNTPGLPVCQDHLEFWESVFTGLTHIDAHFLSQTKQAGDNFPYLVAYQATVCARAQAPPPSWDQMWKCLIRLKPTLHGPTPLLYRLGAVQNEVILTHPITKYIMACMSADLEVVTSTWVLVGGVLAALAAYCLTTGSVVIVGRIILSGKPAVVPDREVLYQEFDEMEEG

For `C=C[C@@H]1C[C@]1(NC(=O)[C@@H]1C[C@@H](Oc2nc(N(C)C)cc3cc(OC)ccc23)CN1C(=O)C(Nc1cc(C)cc(C)n1)C(C)(C)C)C(=O)NS(=O)(=O)C1CC1` (single isomer, unassigned) [Compound 18], the IC50 was 0.9 nM.

— US7772180B2, “Hepatitis C virus inhibitors” (Bristol-Myers Squibb Company, priority 2006, dated 2010)
